Source: PMC6437697 (Journal of Medicinal Chemistry, 2019)
≈ marks a conversion by molar mass, not a printed value.

What was measured:
in vitro = conditions: human
MEK6 = biological target: T1, MEK6 (Homo sapiens, UniProt P52564); assay: KINOMEscan; format: binding; conditions: read-out: % control activity remaining
T1 construct: purchased Eurofins DiscoverX KINOMEscan

FLT3(D835V) = biological target: T2, FLT3(D835V) (Homo sapiens, UniProt P36888, D835V); assay: KINOMEscan; format: binding; conditions: read-out: % control activity remaining
T2 construct: purchased Eurofins DiscoverX KINOMEscan

[1] = Measured lipophilicity Log D7.4; conditions: pH 7.4
GRK2 = biological target: T3, GRK2 (Homo sapiens, UniProt P25098); assay: KINOMEscan; format: binding; conditions: read-out: % control activity remaining
T3 construct: purchased Eurofins DiscoverX KINOMEscan

GRK3 = biological target: T4, GRK3 (Homo sapiens, UniProt P35626); assay: KINOMEscan; format: binding; conditions: read-out: % control activity remaining
T4 construct: purchased Eurofins DiscoverX KINOMEscan

WNK4 = biological target: T5, WNK4 (Homo sapiens, UniProt Q96J92); assay: KINOMEscan; format: binding; conditions: read-out: % control activity remaining
T5 construct: purchased Eurofins DiscoverX KINOMEscan

CAMK1B = biological target: T6, CAMK1B (Homo sapiens, UniProt Q6P2M8); assay: KINOMEscan; format: binding; conditions: read-out: % control activity remaining
T6 construct: purchased Eurofins DiscoverX KINOMEscan

FLT3(ITD,D835Y) = assay: KINOMEscan; format: binding, human; conditions: 1000 nM
WNK2 = biological target: T7, WNK2 (Homo sapiens, UniProt Q9Y3S1); assay: KINOMEscan; format: binding; conditions: read-out: % control activity remaining
T7 construct: purchased Eurofins DiscoverX KINOMEscan

CDK4 = biological target: T8, CDK4 (Homo sapiens, UniProt P11802); assay: KINOMEscan; format: binding; conditions: read-out: % control activity remaining
T8 construct: purchased Eurofins DiscoverX KINOMEscan

FLT3(ITD,D835V) = assay: KINOMEscan; format: binding, human; conditions: 1000 nM
TSSK3 = biological target: T9, TSSK3 (Homo sapiens, UniProt Q96PN8); assay: KINOMEscan; format: binding; conditions: read-out: % control activity remaining
T9 construct: purchased Eurofins DiscoverX KINOMEscan

[2] = tested on: IRE1α-dependent splicing of XBP1u-luciferase mRNA reporter in HEK293 cells; assay: XBP1 luciferase fusion mRNA splicing reporter in HEK293 cells; format: cell-based, human; conditions: Homo sapiens, HEK293, read-out: tunicamycin- and thapsigargin-induced splicing of XBP1 luciferase fusion mRNA IC50
VRK2 = biological target: T10, VRK2 (Homo sapiens, UniProt Q86Y07); assay: KINOMEscan; format: binding; conditions: read-out: % control activity remaining
T10 construct: purchased Eurofins DiscoverX KINOMEscan

PKFYVE = biological target: T11, PKFYVE (Homo sapiens, UniProt Q9Y2I7); assay: KINOMEscan; format: binding; conditions: read-out: % control activity remaining
T11 construct: purchased Eurofins DiscoverX KINOMEscan

[3] = Aqueous buffer solubility (KSol)
[4] = tested on: GFP-IRE1α oligomerization in HEK293 cells; assay: GFP-IRE1α foci (oligomerization) assay in HEK293 cells; format: cell-based, human; conditions: absence of tunicamycin
IRE1β = IRE1β (Homo sapiens, UniProt Q76MJ5); assay: biochemical; format: binding
IRE1α = IRE1α (Homo sapiens, UniProt O75460); assay: biochemical; format: binding
VPS34 = biological target: T12, VPS34 (Homo sapiens, UniProt Q8NEB9); assay: KINOMEscan; format: binding; conditions: read-out: % control activity remaining
T12 construct: purchased Eurofins DiscoverX KINOMEscan
T12 sequence (Q8NEB9 whole entry): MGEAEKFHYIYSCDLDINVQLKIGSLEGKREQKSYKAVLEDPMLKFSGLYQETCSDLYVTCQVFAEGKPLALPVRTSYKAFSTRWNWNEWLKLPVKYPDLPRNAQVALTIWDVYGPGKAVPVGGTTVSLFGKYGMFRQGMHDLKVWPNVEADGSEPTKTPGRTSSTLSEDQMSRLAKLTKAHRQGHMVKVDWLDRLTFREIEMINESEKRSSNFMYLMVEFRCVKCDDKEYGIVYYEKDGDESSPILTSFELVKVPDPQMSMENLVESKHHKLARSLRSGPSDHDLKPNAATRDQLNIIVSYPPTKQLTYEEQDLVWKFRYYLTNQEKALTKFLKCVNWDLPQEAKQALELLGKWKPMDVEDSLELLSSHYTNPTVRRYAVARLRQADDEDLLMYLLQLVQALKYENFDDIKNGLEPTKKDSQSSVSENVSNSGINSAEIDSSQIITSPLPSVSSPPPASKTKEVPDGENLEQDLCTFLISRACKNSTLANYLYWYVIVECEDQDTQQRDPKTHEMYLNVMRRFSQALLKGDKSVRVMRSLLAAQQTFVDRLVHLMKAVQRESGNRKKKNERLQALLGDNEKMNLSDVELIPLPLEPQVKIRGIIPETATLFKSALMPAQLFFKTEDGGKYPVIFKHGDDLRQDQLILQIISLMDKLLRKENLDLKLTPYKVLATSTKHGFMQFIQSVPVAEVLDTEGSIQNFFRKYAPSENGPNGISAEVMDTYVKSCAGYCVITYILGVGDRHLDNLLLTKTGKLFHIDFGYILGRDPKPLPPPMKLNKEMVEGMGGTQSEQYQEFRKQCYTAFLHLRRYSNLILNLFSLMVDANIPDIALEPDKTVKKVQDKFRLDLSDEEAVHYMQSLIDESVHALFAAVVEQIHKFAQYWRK

Sequence of IRE1β (Q76MJ5 35-926): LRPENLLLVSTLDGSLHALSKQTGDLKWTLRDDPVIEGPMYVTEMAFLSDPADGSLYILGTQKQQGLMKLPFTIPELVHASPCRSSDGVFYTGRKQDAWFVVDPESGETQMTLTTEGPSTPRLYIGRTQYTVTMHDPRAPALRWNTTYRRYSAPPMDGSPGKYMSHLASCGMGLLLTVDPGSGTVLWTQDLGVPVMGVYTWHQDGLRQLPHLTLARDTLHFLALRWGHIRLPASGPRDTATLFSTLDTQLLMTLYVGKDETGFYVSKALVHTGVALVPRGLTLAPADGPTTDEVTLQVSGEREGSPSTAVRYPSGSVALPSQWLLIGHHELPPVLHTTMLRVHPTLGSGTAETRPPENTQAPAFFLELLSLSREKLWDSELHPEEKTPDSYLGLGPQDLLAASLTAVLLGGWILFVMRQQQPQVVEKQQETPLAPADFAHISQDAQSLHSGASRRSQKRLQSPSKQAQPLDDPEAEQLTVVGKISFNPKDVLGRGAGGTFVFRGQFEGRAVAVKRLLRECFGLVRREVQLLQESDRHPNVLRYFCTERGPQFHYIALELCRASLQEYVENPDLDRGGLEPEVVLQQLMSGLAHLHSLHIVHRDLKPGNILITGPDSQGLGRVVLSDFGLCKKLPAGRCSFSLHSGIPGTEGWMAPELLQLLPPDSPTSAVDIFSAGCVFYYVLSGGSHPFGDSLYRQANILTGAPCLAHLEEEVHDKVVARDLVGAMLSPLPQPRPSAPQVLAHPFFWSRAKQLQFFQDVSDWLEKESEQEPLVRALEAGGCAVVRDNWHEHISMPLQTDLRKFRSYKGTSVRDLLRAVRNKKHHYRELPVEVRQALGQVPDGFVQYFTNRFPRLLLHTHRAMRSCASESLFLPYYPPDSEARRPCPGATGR
T5 sequence (Q96J92 whole entry): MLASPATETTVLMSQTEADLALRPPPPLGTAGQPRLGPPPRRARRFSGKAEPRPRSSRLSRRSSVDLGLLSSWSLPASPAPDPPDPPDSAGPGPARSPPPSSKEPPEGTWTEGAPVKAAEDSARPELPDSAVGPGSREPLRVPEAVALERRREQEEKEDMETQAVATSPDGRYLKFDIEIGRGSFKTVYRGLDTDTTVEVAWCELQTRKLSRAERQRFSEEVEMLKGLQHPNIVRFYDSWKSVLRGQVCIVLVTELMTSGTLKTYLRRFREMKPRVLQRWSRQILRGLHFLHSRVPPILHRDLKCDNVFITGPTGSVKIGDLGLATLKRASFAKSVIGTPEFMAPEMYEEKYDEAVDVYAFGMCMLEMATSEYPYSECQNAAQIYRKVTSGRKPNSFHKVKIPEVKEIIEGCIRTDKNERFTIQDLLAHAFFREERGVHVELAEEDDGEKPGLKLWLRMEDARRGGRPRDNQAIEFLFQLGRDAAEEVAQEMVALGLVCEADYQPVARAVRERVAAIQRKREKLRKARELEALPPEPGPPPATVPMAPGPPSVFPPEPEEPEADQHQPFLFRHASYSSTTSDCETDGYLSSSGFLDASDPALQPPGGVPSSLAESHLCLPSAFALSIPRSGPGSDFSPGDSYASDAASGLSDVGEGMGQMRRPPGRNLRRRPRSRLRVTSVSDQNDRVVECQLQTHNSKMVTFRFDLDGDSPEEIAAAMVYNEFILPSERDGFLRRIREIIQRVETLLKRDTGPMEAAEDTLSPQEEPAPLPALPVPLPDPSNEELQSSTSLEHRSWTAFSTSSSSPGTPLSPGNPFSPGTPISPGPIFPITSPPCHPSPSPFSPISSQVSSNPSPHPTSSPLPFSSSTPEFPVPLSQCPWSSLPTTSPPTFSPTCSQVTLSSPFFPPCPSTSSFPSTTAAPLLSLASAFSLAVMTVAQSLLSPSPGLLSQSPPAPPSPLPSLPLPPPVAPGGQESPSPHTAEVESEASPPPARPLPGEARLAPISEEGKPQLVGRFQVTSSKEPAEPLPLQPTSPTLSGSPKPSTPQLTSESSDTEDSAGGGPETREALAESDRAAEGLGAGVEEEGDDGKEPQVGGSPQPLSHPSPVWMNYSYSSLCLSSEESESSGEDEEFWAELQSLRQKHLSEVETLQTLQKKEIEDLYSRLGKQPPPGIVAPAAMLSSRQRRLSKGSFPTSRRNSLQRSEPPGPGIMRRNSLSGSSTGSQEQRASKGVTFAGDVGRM
T3 sequence (P25098 whole entry): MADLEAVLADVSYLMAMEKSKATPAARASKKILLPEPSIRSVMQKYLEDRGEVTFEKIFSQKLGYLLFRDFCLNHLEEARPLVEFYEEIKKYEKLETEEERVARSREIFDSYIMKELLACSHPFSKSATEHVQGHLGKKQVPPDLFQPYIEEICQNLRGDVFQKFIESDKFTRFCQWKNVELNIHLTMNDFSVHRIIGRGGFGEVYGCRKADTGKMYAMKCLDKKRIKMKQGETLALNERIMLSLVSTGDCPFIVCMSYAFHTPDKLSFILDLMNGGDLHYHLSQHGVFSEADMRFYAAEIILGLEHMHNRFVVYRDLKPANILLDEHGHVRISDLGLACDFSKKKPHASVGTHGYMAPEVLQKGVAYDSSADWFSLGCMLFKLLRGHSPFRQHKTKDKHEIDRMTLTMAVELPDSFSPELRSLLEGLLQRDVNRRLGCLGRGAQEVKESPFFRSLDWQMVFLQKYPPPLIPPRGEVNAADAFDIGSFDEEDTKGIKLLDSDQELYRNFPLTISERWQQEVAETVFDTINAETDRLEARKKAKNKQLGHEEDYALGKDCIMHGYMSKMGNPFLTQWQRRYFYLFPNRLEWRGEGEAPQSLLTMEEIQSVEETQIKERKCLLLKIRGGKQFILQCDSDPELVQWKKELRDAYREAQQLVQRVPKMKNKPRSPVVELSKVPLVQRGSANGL
T8 sequence (P11802 whole entry): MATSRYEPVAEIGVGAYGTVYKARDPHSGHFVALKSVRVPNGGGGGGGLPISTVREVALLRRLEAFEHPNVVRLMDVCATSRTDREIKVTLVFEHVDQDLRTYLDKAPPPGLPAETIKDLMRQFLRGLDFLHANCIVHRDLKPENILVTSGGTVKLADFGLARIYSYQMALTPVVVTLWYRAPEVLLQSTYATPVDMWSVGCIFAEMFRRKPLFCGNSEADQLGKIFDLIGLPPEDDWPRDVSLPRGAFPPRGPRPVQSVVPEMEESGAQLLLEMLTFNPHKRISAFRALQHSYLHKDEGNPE
T1 sequence (P52564 whole entry): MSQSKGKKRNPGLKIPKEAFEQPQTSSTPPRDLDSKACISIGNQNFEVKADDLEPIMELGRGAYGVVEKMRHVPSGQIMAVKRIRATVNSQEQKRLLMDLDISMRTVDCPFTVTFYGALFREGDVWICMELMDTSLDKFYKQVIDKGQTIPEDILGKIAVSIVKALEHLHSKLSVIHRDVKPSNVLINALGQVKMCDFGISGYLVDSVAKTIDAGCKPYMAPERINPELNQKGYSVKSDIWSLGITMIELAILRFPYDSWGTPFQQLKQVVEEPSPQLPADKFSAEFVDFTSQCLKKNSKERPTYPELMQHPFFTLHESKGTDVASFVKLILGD
T6 sequence (Q6P2M8 whole entry): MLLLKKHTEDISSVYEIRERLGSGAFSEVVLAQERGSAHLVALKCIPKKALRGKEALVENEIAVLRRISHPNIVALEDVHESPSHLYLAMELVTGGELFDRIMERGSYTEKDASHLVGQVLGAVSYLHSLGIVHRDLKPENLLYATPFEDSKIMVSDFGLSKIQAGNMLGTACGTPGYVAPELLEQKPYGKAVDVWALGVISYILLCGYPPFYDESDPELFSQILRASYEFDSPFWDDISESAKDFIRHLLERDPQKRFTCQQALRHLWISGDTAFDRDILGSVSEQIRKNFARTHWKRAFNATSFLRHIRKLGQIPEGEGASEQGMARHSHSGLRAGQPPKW
T9 sequence (Q96PN8 whole entry): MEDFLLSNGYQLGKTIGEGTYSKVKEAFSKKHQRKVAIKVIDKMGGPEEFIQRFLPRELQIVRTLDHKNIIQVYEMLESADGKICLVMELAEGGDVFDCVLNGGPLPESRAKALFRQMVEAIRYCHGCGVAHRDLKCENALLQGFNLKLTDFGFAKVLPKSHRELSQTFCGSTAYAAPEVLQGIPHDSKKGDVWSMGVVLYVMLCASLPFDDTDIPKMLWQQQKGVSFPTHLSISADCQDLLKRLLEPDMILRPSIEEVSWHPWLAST

Compound | EC50 (in vitro) [nM] | remaining binding at 1 µM (MEK6) [%] | remaining binding at 1 µM (FLT3(D835V)) [%] | logD [1] | remaining binding at 1 µM (GRK2) [%] | remaining binding at 1 µM (GRK3) [%] | remaining binding at 1 µM (WNK4) [%] | remaining binding at 1 µM (CAMK1B) [%] | % control activity remaining (FLT3(ITD,D835Y)) [%] | remaining binding at 1 µM (WNK2) [%] | remaining binding at 1 µM (CDK4) [%] | % control activity remaining (FLT3(ITD,D835V)) [%] | remaining binding at 1 µM (TSSK3) [%] | IC50 [2] [nM] | remaining binding at 1 µM (VRK2) [%] | remaining binding at 1 µM (PKFYVE) [%] | solubility [3] [µM] | stimulation of GFP-IRE1α foci formation by compound on its own [4] | IC50 (IRE1β) [nM] | selectivity for IRE1α over the IRE1β isoform (IRE1β) [fold] | other results
Clc1cc(NCC2CC2)c2ncc(-c3ccc4[nH]ncc4c3)n2n1 [compound 2, 6-Chloro-N-(cyclopropylmethyl)-3-(1H-indazol-5-yl)imidazo[1,2-b]pyridazin-8-amine] | > 49000 | 98 |  |  |  |  |  |  |  |  |  |  |  |  |  |  |  |  |  |  | 
O=C(CN1CCOCC1)N[C@H]1CC[C@H](Nc2cc(Cl)nn3c(-c4ccc5[nH]ncc5c4)cnc23)CC1 [compound 26] | > 49000 | 93 | 0 | 1.8 | 84 | 74 | 100 | 75 | 25 | 34 | 100 | 0.7 | 100 | 680 to 1630 | 98 | 87 | 80 (≈ 40.7 µg/mL) | No stimulation | 345 | 9 | IC50 (IRE1α): 39 nM; remaining binding at 1 µM (VPS34): 94%
CN1CCC(CNc2cc(Cl)nn3c(-c4cc5nc(Nc6ccccc6)[nH]c5cc4F)cnc23)CC1 [compound 31, 6-Chloro-3-(6-fluoro-2-(phenylamino)-1H-benzo[d]imidazol-5-yl)-N-((1-methylpiperidin-4-yl)methyl)imidazo[1,2-b]pyridazin-8-amine] |  |  | 69 | 3.7 | 100 | 91 | 83 | 100 | 77 | 100 | 100 | 76 | 91 | 680 to 1630 | 82 | 26 | 38 (≈ 19.2 µg/mL) | No stimulation | 7680 | 100 | remaining binding at 1 µM (VPS34): 97%
